Laboratory results: patent US7736624B2, “Methods and compositions for diagnostic and therapeutic targeting of COX-2” (priority 2006, dated 2010)
Where two headings read alike, the source gives them in different places.

Legend:
COX-2 = target: T1, COX-2 (Homo sapiens, UniProt P35354); assay: IC50 determinations using purified enzymes (TLC assay), COX-2; type: biochemical; set-up: made in house; host or cells: Sf9 insect cells; settings: assayed against purified enzymes, read-out: IC50 COX-2
T1 sequence (P35354 18-604): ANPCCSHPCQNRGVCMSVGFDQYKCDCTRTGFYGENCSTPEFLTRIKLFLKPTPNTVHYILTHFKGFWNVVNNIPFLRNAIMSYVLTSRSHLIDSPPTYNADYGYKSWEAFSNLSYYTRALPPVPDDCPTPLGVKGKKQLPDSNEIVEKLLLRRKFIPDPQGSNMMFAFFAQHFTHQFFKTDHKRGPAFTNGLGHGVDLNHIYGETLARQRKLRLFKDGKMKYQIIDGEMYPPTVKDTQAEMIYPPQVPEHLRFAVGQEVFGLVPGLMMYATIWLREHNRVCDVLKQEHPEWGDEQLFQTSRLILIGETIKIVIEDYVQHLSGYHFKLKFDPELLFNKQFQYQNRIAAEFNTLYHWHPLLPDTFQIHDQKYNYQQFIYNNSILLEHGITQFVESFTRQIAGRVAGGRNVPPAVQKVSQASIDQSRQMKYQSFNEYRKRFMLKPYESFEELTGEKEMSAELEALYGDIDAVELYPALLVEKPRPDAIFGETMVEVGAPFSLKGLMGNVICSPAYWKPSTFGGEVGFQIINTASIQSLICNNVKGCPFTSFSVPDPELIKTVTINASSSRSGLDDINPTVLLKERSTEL

Fluorescence in buffer = type: physicochemical; settings: for Fluor. λem: emission; for Fluor. λex: excitation
COX-1 = target: T2, COX-1 (Mus musculus, UniProt P22437); assay: Macrophage assay (RAW264.7), COX-1; type: cell-based, murine
T2 sequence (P22437 1-602): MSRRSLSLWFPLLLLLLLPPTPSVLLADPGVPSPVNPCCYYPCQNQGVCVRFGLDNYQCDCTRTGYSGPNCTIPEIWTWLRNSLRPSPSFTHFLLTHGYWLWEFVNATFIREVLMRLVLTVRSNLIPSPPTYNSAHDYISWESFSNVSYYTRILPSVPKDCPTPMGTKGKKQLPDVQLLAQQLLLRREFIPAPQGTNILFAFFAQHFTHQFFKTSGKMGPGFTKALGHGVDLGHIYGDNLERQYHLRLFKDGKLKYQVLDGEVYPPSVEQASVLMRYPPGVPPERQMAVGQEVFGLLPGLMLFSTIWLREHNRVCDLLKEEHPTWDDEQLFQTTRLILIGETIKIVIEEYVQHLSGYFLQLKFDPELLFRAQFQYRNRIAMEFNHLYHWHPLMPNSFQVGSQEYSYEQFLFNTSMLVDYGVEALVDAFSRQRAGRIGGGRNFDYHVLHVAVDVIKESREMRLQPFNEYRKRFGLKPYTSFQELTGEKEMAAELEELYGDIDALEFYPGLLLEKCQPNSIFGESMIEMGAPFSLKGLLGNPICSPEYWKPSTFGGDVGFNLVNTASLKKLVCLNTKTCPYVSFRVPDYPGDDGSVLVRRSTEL
Description: Thus, NSAID derivatives that are identified as potentially useful in the methods described herein can be further tested using, for example, the RAW264.7 murine macrophage cell line. These cells are readily available (for example, from the American Type Culture Collection (ATCC), Manassas, Va., United States of America) and are easily cultured in large numbers. They normally express low levels of COX-1 and very low to undetectable levels of COX-2. Upon exposure to bacterial lipopolysaccharide (LPS), however, COX-2 levels increase dramatically over the ensuing 24 hour period, and the cells produce PGD2 and PGE2 from endogenous arachidonic acid stores (generally, ˜1 nmol/10^7 cells total PG formation). After LPS exposure, the addition of exogenous arachidonic acid results in the formation of additional PGD2 and PGE2 as a result of metabolism by the newly synthesized COX-2.
This system provides a number of approaches for testing the inhibitory potency of COX-2-selective ligands (e.g., inhibitors). In general, following LPS activation, cells can be treated for 30 minutes with the desired concentrations of candidate derivative(s) in DMSO. ^14C-arachidonic acid can be added, and the cells can be incubated for 15 minutes at 37° C. Product formation can be assessed following extraction and TLC separation of the culture medium. Alternatively, the effects of candidate derivatives on PG synthesis from endogenous arachidonic acid can be assessed by incubating cells with desired concentrations of candidate derivatives 30 minutes prior to LPS exposure. Following a 24-hour incubation, medium can be collected and extracted, and the amount of PGD2 and/or PGE2 can be assayed by gas chromatography-mass spectrometry, liquid chromatography-mass spectrometry, or ELISA.

Question: Which results are given for `CC[N+](CC)=c1ccc2c(-c3ccccc3)c(C)c(/C=C/C=C3/N(CCCCCC(=O)NCCCCNC(=O)Cc4c(C)n(C(=O)c5ccc(Cl)cc5)c5ccc(OC)cc45)c4ccc(S(=O)(=O)[O-])cc4C3(C)C)oc-2c1` [Compound 27ttt]?
Answer: IC50 (COX-2; Table 3): 1000 nM; Fluor. λem (Fluorescence in buffer): 731 nm; Fluor. λex (Fluorescence in buffer): 710 nm; IC50 (COX-1; Table 3, macrophage assay): > 5e-06 M

Question: With `COc1ccc2c(c1)c(CC(=O)NCCCCNC(=O)c1ccc(C(=O)[O-])c(C3=c4cc5c6c(c4Oc4c3cc3c7c4CCCN7CCC3)CCC[N+]=6CCC5)c1)c(C)n2C(=O)c1ccc(Cl)cc1` [Compound 27vv] as the compound, how does the IC50 (COX-2; Table 3) read?
Answer: 3500 nM

Question: What about the “Fluor. λem” value (Fluorescence in buffer) of the same compound?
Answer: 603 nm

Question: What about the “Fluor. λex” value (Fluorescence in buffer) of the same compound?
Answer: 581 nm

Question: What about the IC50 (COX-1; Table 3, macrophage assay) of the same compound?
Answer: > 5e-06 M

Question: With `COC(=O)c1cc(-c2ccc(C)cc2)n(-c2ccc(S(N)(=O)=O)cc2)n1` [Compound 30b] as the compound, how does the IC50 (COX-2; Table 2) read?
Answer: 920 nM

Question: What about the IC50 (COX-1; Table 2, macrophage assay (M)) of the same compound?
Answer: > 5e-06 M

Question: For `COc1ccc2c(c1)c(CC(=O)NCCCCNC(=O)Cc1ccc(Nc3ccc([N+](=O)[O-])c4nonc34)cc1)c(C)n2C(=O)c1ccc(Cl)cc1` [Compound 27ii, N-([2-{4-(7-nitrobenzo[1,2,5]oxadiazol-4-ylamino)phenyl}acetamido]but-4-yl)-2-{1-(4-chlorobenzoyl)-5-methoxy-2-methyl-1H-indol-3-yl]acetamide], which IC50 (COX-2; Table 3) is on record?
Answer: 500 nM

Question: And the “Fluor. λem” value (Fluorescence in buffer)?
Answer: 605 nm

Question: And the “Fluor. λex” value (Fluorescence in buffer)?
Answer: 492 nm

Question: And the IC50 (COX-1; Table 3, macrophage assay)?
Answer: > 1e-05 M

Question: Which results are given for `COc1ccc2c(c1)c(CC(=O)NCCNS(=O)(=O)c1ccc(/N=N/c3ccc(N(C)C)cc3)cc1)c(C)n2C(=O)c1ccc(Cl)cc1` [Compound 27aa, N-(2-Dabsylaminoethyl)-2-{1-(4-chlorobenzoyl)-5-methoxy-2-methyl-1H-indol-3-yl}acetamide]?
Answer: IC50 (COX-2; Table 3): 80 nM; Fluor. λem (Fluorescence in buffer): 450 nm; Fluor. λex (Fluorescence in buffer): 390 nm; IC50 (COX-1; Table 3, macrophage assay): > 2.5e-06 M

Question: What does the source list for `CC[N+](CC)=c1ccc2nc3c(cc(NC(=O)CCOCCOCCOCCOCCNC(=O)Cc4c(C)n(C(=O)c5ccc(Cl)cc5)c5ccc(OC)cc45)c4ccccc43)oc-2c1` [Compound 27uu, N-[5-)1-{1-(4-chlorobenzoyl)-5-methoxy-2-methyl-1H-indol-3-yl}-2-6,9,12,15-tetraoxa-3-azaoctadecanamido]-9H-benzo[a]penoxazin-9-ylidene)-N-ethylethanaminium perchlorate]?
Answer: IC50 (COX-2; Table 3): 1700 nM; Fluor. λem (Fluorescence in buffer): 670 nm; Fluor. λex (Fluorescence in buffer): 618 nm; IC50 (COX-1; Table 3, macrophage assay): > 2.5e-05 M

Question: With `COc1ccc2c(c1)c(CC(=O)NCCCCNC(=O)c1ccc(C3=c4cc5c6c(c4Oc4c3cc3c7c4CCCN7CCC3)CCC[N+]=6CCC5)c(C(=O)[O-])c1)c(C)n2C(=O)c1ccc(Cl)cc1` [Compound 27eee] as the compound, how does the IC50 (COX-2; Table 3) read?
Answer: 700 nM

Question: And the IC50 (COX-1; Table 3, macrophage assay)?
Answer: > 5e-06 M

Question: For `COc1ccc2c(c1)c(CC(=O)NCCCCNC(=O)c1ccc(C(=O)O)c(-c3c4ccc(=O)cc-4oc4cc(O)ccc34)c1)c(C)n2C(=O)c1ccc(Cl)cc1` [Compound 27qq, N-[(Fluorescein-6-carboxylamido)but-4-yl]-2-[1-(4-chlorobenzoyl)-5-methoxy-2-methyl-1H-indol-3-yl)acetamide], which IC50 (COX-2; Table 3) is on record?
Answer: > 25000 nM

Question: And the IC50 (COX-1; Table 3, macrophage assay)?
Answer: > 5e-06 M

Question: Which IC50 (COX-2; Table 3) does the source give for `COc1ccc2c(c1)c(CC(=O)NCCNS(=O)(=O)c1cccc3c(N(C)C)cccc13)c(C)n2C(=O)c1ccc(Cl)cc1` [Compound 27x] here?
Answer: 66 nM

Question: And the “Fluor. λem” value (Fluorescence in buffer)?
Answer: 493 nm

Question: What about the “Fluor. λex” value (Fluorescence in buffer) of the same compound?
Answer: 355 nm

Question: And the IC50 (COX-1; Table 3, macrophage assay)?
Answer: > 1e-06 M
